Data on 1 compound can be found in patent US7998965B2, “Glutamate aggrecanase inhibitors” (Wyeth LLC, priority 2005, dated 2011).

Some results are limits rather than exact numbers.

As usually defined, the IC50 is the concentration needed to halve the response being measured.

The target of assay [1] is T1, recombinant human catalytic domain of MMP-13 (Homo sapiens, UniProt P45452).
T1 construct: catalytic domain of MMP-13 (165 amino acids, residues 104-268, 19 kDa)
Nature of the assay: In vitro fluorescence assay of MMP-13 activity. The format is biochemical. To be noted: Table 1; unit inferred.

The target of assay [2] is T2, recombinant human catalytic domain of MMP-14 (Homo sapiens, UniProt P50281).
T2 construct: 177 amino acids corresponding to Tyr89-Gly265 of mature human enzyme; purchased Chemicon International, Inc. CC1041
Nature of the assay: In vitro fluorescence assay of MMP-14 activity. The format is biochemical. The conditions noted are these: Table 1; unit inferred.

Assay [3] deals with T3, recombinant human MMP-2 (Homo sapiens, UniProt P08253).
T3 sequence (P08253 110-660): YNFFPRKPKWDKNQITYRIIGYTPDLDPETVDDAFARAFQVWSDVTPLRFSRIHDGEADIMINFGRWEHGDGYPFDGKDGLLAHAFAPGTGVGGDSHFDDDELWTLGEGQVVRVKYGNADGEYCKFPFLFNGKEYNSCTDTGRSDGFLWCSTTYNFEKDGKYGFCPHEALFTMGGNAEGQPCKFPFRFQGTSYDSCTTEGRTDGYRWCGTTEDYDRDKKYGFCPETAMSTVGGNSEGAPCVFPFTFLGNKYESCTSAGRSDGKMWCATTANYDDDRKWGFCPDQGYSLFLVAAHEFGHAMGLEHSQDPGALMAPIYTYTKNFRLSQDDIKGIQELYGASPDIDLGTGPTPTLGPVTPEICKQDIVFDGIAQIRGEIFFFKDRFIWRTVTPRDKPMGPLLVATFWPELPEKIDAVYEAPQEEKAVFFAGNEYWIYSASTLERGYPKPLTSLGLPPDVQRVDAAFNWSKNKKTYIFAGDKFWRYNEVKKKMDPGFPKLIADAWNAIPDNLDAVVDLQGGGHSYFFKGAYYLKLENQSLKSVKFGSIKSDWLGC
Nature of the assay: In vitro fluorescence assay of MMP-2 activity.
Procedure: A continuous assay was used in which the substrate is a synthetic peptide containing a fluorescent group (7-methoxycoumarin; Mca), which is quenched by energy transfer to a 2,4-dinitrophenyl group. […] The source of enzyme in the assay was the recombinant human MMP-2 (66 kDa; Oncogene Research Products (catalog number PF023 from Calbiochem)). The substrate used was the peptide Mca-PQGL-(3-[2,4-dinitrophenyl]-L-2,3-diaminopropionyl)-AR-OH. The assay buffer consisted of 50 mM Hepes (pH 7.4), 100 mM NaCl, 5 mM CaCl2, and 0.005% Brij-35. […] The plates were then incubated at 30° C. for 15 minutes. The enzymatic reactions were initiated by adding the substrate to a final concentration of 20 μM, and mixing 10 times with a pipette. The final DMSO concentration in the assay was 6.0%.
Plots of the inhibitor concentration vs. the percent inhibition were fit to the following equation: y=(a−d)/[^1+(x/c)^b]+d, a general sigmoidal curve with Hill slope, a to d. x is the inhibitor concentration under test. y is the percent inhibition. a is the limiting response as x approaches zero. As x increases without bound, y tends toward its limit d. c is the inflection point (IC50) for the curve. That is, y is halfway between the lower and upper asymptotes when x=c. b is the slope factor or Hill coefficient.

The subject of assay [4] is bovine articular cartilage treated with Interleukin 1 alpha (IL-1α). Nature of the assay: Bovine articular cartilage explant cultures: inhibition of degradation of proteoglycan. The class given is cell-based. To be noted: inhibitory effect expressed as percentage, concentration not printed. A digest of the protocol: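 Bovine metacarpal cartilage discs (6 mm), equilibrated in serum-free DMEM-based medium, were treated with 5 ng/ml IL-1 plus compound (working solutions 0.1-10 μg/ml), with medium collected and replaced on days 1, 2 and 3. Released proteoglycan was measured by DMMB absorbance at 520 nm against chondroitin sulphate standards, expressed as μg per mg cartilage, and inhibition given as percentage.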

For assay [5], the target named is T4, purified recombinant human Aggrecanase-2 (Ag2t-Phe628-Strep) (Homo sapiens, UniProt Q9UNA0).
T4 construct: the form used is denoted as Ag2t-Phe628-Strep (MW=41,737)
T4 sequence (Q9UNA0 262-628): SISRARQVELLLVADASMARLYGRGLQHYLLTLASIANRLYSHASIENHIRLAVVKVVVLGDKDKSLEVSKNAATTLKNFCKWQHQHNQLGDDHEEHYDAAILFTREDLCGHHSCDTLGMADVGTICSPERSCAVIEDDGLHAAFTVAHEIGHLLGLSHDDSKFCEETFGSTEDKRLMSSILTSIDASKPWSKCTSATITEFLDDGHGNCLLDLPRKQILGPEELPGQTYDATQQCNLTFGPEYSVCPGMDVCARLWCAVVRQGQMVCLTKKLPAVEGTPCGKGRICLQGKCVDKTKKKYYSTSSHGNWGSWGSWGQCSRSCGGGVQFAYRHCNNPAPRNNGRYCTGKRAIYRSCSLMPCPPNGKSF
Nature of the assay: In vitro fluorescence screen for Aggrecanase-2 inhibitors. To be noted: Table 1; read-out: Agg 2 IC50. The class given is biochemical.

The target of assay [6] is T5, MMP-1 (Homo sapiens, UniProt P03956).
T5 sequence (P03956 100-469): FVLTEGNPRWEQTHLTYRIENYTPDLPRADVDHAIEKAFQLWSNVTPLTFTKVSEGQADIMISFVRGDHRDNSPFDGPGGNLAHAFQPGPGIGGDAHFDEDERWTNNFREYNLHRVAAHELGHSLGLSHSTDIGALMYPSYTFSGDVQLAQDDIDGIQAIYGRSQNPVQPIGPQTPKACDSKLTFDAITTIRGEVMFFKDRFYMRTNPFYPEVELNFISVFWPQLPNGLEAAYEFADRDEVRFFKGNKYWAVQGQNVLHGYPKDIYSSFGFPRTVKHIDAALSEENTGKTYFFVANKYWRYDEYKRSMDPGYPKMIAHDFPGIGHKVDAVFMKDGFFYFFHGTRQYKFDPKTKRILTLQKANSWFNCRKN
Nature of the assay: MMP-1 of Table 1. The conditions noted are these: unit inferred. The format is biochemical.

For `CC(C)(Cc1ccc(F)cc1)NC(=O)[C@H](CCC(=O)O)NC(=O)c1ccc(-c2ccccc2)cc1` [Example 8OO, N^2-(1,1′-biphenyl-4-ylcarbonyl)-N^1-[2-(4-fluorophenyl)-1,1-dimethylethyl]-L-α-glutamine], the IC50 in assay [1] was greater than 50 µM; in assay [2], greater than 200 µM; in assay [3], greater than 20 µM; in assay [5] it was 0.044 µM; in assay [6] it was greater than 200 µM. Further, the bovine in assay [4] (Table 1, first of two columns headed bovine) came to 87%; in assay [4] (Table 1, second of two columns headed bovine) it was 40%.
